Test results taken from publication PMC11173897, “Computational Docking as a Tool in Guiding the Drug Design of Rutaecarpine Derivatives as Potential SARS-CoV-2 Inhibitors” (Molecules, 2024).

Legend:
[1] = system: TNF-α, IL-6 and IL-1β mRNA in RAW264.7 cells; assay type: cell-based
SARS-CoV-2 3CL protease [2] = target: T1, SARS-CoV-2 3CL protease (Severe acute respiratory syndrome coronavirus 2, UniProt P0DTD1); test: 3CL protease assay (SensoLyte fluorogenic kit); assay type: biochemical; details: n = 4
[3] = system: TNF-α, IL-6 and IL-1β mRNA in RAW264.7 cells; assay type: cell-based; details: co-treated with LPS 0.1 µg/mL, 24 h, Figure S2
cells = details: MTT assay, Figure S1
S-protein–ACE2 complex [4] = target: T2, S-protein–ACE2 complex (Severe acute respiratory syndrome coronavirus 2, UniProt P0DTC2); test: S-protein-based ELISA (spike–ACE2 binding assay kit); set-up: species or system SARS-CoV-2; details: for maximal inhibition, higher than that of RU: S-protein-based ELISA, compared with RU; for IC50: tested at 0.1, 1, 5, 10, 20 µM, n = 4, read-out: IC50, disrupting the S-protein–ACE2 complex
T2 construct: purchased ImmunoDiagnostics Ltd., Hong Kong, China
Source text: An S-protein-based ELISA was utilized to determine the binding activities of RU-75 and RU-184 to the S-protein–ACE2 complex. A standard inhibitor, provided by the supplier (calibrated to NIBSC code 20/136), was employed as a positive control (Figure 6A). […] The maximal inhibition, triggered by RU-75 and RU-184, was at least 20% higher than that of RU.
(A) A standard inhibitor, provided by supplier (calibrated to NIBSC code 20/136), was used as a positive control. (B) Rutaecarpine, RU-75 and RU-184 were detected at concentrations of 0.1, 1, 5, 10, 20 µM. The IC50 values are shown.
Spike (S)-protein inhibition was analyzed with the SARS-CoV-2 spike–ACE2 binding assay kit (ImmunoDiagnostics Ltd., Hong Kong, China), according to the manufacturer’s instructions. The reaction was terminated by the addition of 2 M H2SO4, and the data were quantified using a microplate reader (FlexStation; Molecular Devices, San Jose, CA). The percentage of inhibition was calculated as follows:
Percentage of inhibition = (PAvg − SAvg)/PAvg × 100%, where PAvg and SAvg are the mean OD values of the positive control and test sample, respectively.

[5] = system: wild-type SARS-CoV-2 pseudovirus; details: cited from earlier work
[6] = system: TNF-α, IL-6 and IL-1β mRNA in RAW264.7 cells; details: previous investigation; cited from earlier work
SARS-CoV-2 3CL protease [7] = target: T1, SARS-CoV-2 3CL protease; details: cited from earlier work
S-protein–ACE2 complex [8] = target: T2, S-protein–ACE2 complex; details: cited from earlier work

Structure (SMILES)	production of inflammatory cytokines (TNF-α, IL-6 and IL-1β) [1]	IC50 (SARS-CoV-2 3CL protease [2])	inflammatory suppression [3]	cell toxicity (cell viability) (cells)	maximal inhibition, higher than that of RU (S-protein–ACE2 complex [4])	IC50 (S-protein–ACE2 complex [4])	entry of SARS-CoV-2 into host cells [5]	inflammatory response induced by SARS-CoV-2 [6]	3CL protease inhibition (SARS-CoV-2 3CL protease [7])	formation of the S-protein–ACE2 complex (S-protein–ACE2 complex [8])
O=C1c2ccc(Nc3ccccc3)cc2NC2=NCCc3c2n1c1ccccc31 [RU-184]	significantly reduced	1030 nM	no significant inflammatory suppression	little impact on the cell viability	at least 20%	780 nM	–	–	–	–
O=c1c2ccc(Nc3ccccc3)cc2nc2n1CCc1c-2[nH]c2ccccc12 [RU-75]	significantly reduced	1310 nM	no significant inflammatory suppression	little impact on the cell viability	at least 20%	1030 nM	–	–	–	–
O=c1c2ccccc2nc2n1CCc1c-2[nH]c2ccccc12 [RU, rutaecarpine]	–	1600 nM	–	little impact on the cell viability	–	1260 nM	prevented the entry of SARS-CoV-2 into host cells	attenuated the inflammatory response	inhibit the 3CL protease	inhibited the formation of the S-protein–ACE2 complex
